Source: US20250313635A1, “ANTI-INTEGRIN ANTIBODIES AND USES THEREOF” (Merck Sharp & Dohme LLC, priority 2022, published 2025)
Like-named read-outs stand apart in the source and are kept apart here.

Experiments:
hαvβ3 = target: T1, hαvβ3 (Homo sapiens, UniProt P05106+P06756); assay: Human AlphaLISA integrin-ligand blocking assay (vitronectin); format: biochemical
T1 construct: The full extracellular domains for all α and β integrin subunits; (GGGS)3 linker (C); acidic coiled-coil with cysteine (C); GG-Avitag (C); hexa-histidine tag (C); basic coiled-coil with cysteine (C); made in house; host or cells: Expi293 cells
Protocol: (§1) Integrin AlphaLISA assay. In the AlphaLISA integrin assays, we used a HEPES based buffer (25 mM HEPES pH 7.4, 137 mM NaCl, 1 mM MgCl2, 1 mM MnCl2, 2 mM CaCl2, 2.7 mM KCl, and 0.05% Tween 20). Optimal assay conditions were determined with a titration of the reagents for signal noise ratio (S/N), linear range, etc. For the respective integrins, we used the final concentrations described in Table 9.
(§2) Briefly, the testing antibody (8 μL) was added as a 4×(of Final testing concentration) solution in the HEPES buffer described previously into a 384w AlphaPlate™ (Perkin Elmer #6005350). Then the integrin and ligand were added sequentially as 8×(4 μL each). Plates were sealed and incubated at room temperature for two hours. Then 4×acceptor bead solution ([…]) was added, and the plates were resealed and incubated at room temperature (RT) for one hour. Finally, 4×([…]) donor beads solution was added in a darkened room and incubated for 45 minutes at room temperature. Plates were read on the Envision (Perkin Elmer) in AlphaScreen™ mode within three hours of donor bead addition.

hαvβ5 = target: T2, hαvβ5 (Homo sapiens, UniProt P06756+P18084); assay: as above; format: biochemical
T2 construct: The full extracellular domains for all α and β integrin subunits; (GGGS)3 linker (C); acidic coiled-coil with cysteine (C); GG-Avitag (C); hexa-histidine tag (C); basic coiled-coil with cysteine (C); made in house; host or cells: Expi293 cells
Protocol: as §1, §2

mαvβ3 = target: T3, mαvβ3 (Mus musculus, UniProt O54890+P43406); assay: Mouse AlphaLISA integrin-ligand blocking assay (vitronectin); format: biochemical; conditions: Table 12; read-out: IC50 Mouse integrin AlphaLISA assays mαvβ3
T3 construct: The full extracellular domains for all α and β integrin subunits; (GGGS)3 linker (C); acidic coiled-coil with cysteine (C); GG-Avitag (C); hexa-histidine tag (C); basic coiled-coil with cysteine (C); made in house; host or cells: Expi293 cells
Protocol: as §1, §2

mαvβ5 = target: T4, mαvβ5 (Mus musculus, UniProt O70309+P43406); assay: as above; format: biochemical; conditions: Table 12; read-out: IC50 Mouse integrin AlphaLISA assays mαvβ5
T4 construct: The full extracellular domains for all α and β integrin subunits; (GGGS)3 linker (C); acidic coiled-coil with cysteine (C); GG-Avitag (C); hexa-histidine tag (C); basic coiled-coil with cysteine (C); made in house; host or cells: Expi293 cells
Protocol: as §1, §2

[1] = system: experimental diabetic nephropathy model; conditions: cited from earlier work
hαvβ1 = target: T5, hαvβ1 (Homo sapiens, UniProt P05556+P06756); assay: Human AlphaLISA integrin-ligand blocking assay (fibronectin); format: biochemical
T5 construct: The full extracellular domains for all α and β integrin subunits; (GGGS)3 linker (C); acidic coiled-coil with cysteine (C); GG-Avitag (C); hexa-histidine tag (C); basic coiled-coil with cysteine (C); made in house; host or cells: Expi293 cells
Protocol: as §1, §2

hα5β1 = target: T6, hα5β1 (Homo sapiens, UniProt P05556+P08648); assay: as above; format: biochemical
T6 construct: The full extracellular domains for all α and β integrin subunits; (GGGS)3 linker (C); acidic coiled-coil with cysteine (C); GG-Avitag (C); hexa-histidine tag (C); basic coiled-coil with cysteine (C); made in house; host or cells: Expi293 cells
Protocol: as §1, §2

mouse αvβ3 = target: T7, mouse αvβ3 (Mus musculus, UniProt O54890+P43406); assay: Cell adhesion assay, CHOK1-mαvβ3 cells on vitronectin; format: cell-based; conditions: FIG. 11
T7 construct: expressed in transfected cells
Protocol: (§3) Cell adhesion assay. For plate preparation, Epic 384-well assay plates (Corning #5040) were washed with OptiMEM™ (Gibco #31985-070) and coated with murine fibronectin (Abcam #ab92784) at a concentration of 0.1 μg/well for CHO-α5KO-mαvβ1 cells; murine vitronectin (Abcam #ab92727) at 0.075 μg/well for CHO-mαvβ3 cells; or murine vitronectin at 0.125 μg/well for CHO-mαvβ5 (all at a volume of 25 μL/well in OptiMEM™), for one hour. Coating solution was then removed by flicking and plates were washed with OptiMEM™ and blocked with 25 μL/well of assay buffer (1% Ovalbumin (Sigma #A5503-10G) in OptiMEM™ containing 1×Pen-Strep (Gibco #15140-148)). A 5-minute baseline reading was taken on a Corning Epica Plate Reader (Model: Epic BT-157900) before removing the assay buffer and adding cells pre-incubated with inhibitors. The Epic™ plate reader detects cellular mass redistribution (adhesion) on the plate surface as a picometer wavelength shift over time. For inhibitor titration preparation: fivefold serial dilutions of small molecule inhibitor MK-0429 or antibody inhibitor Ab-31 were prepared in assay buffer at 4× the final concentration in a 384-well polypropylene plate in a volume of 15 μL per well, starting at a concentration of 800 nM. […]

mouse αvβ1 = target: T8, mouse αvβ1 (Mus musculus, UniProt P09055+P43406); assay: Cell adhesion assay, CHOK1-α5KO-mαvβ1 cells on fibronectin; format: cell-based; conditions: FIG. 11
T8 construct: expressed in transfected cells
Protocol: as §3

mαvβ8 = target: T9, mαvβ8 (Mus musculus, UniProt P43406+Q0VBD0); assay: Mouse AlphaLISA integrin-ligand blocking assay (LAP); format: biochemical; conditions: Table 12; read-out: IC50 Mouse integrin AlphaLISA assays mαvβ8
T9 construct: The full extracellular domains for all α and β integrin subunits; (GGGS)3 linker (C); acidic coiled-coil with cysteine (C); GG-Avitag (C); hexa-histidine tag (C); basic coiled-coil with cysteine (C); made in house; host or cells: Expi293 cells
Protocol: as §1, §2

mαvβ6 = target: T10, mαvβ6 (Mus musculus, UniProt P43406+Q9Z0T9); assay: as above; format: biochemical; conditions: Table 12; read-out: IC50 Mouse integrin AlphaLISA assays mαvβ6
T10 construct: The full extracellular domains for all α and β integrin subunits; (GGGS)3 linker (C); acidic coiled-coil with cysteine (C); GG-Avitag (C); hexa-histidine tag (C); basic coiled-coil with cysteine (C); made in house; host or cells: Expi293 cells
Protocol: as §1, §2

[2] = humans; cited from earlier work
mouse αvβ5 = target: T11, mouse αvβ5 (Mus musculus, UniProt O70309+P43406); assay: Cell adhesion assay, CHOK1-mαvβ5 cells on vitronectin; format: cell-based; conditions: FIG. 11
T11 construct: expressed in transfected cells
Protocol: as §3

T2 sequence (P06756 31-992 limits assumed): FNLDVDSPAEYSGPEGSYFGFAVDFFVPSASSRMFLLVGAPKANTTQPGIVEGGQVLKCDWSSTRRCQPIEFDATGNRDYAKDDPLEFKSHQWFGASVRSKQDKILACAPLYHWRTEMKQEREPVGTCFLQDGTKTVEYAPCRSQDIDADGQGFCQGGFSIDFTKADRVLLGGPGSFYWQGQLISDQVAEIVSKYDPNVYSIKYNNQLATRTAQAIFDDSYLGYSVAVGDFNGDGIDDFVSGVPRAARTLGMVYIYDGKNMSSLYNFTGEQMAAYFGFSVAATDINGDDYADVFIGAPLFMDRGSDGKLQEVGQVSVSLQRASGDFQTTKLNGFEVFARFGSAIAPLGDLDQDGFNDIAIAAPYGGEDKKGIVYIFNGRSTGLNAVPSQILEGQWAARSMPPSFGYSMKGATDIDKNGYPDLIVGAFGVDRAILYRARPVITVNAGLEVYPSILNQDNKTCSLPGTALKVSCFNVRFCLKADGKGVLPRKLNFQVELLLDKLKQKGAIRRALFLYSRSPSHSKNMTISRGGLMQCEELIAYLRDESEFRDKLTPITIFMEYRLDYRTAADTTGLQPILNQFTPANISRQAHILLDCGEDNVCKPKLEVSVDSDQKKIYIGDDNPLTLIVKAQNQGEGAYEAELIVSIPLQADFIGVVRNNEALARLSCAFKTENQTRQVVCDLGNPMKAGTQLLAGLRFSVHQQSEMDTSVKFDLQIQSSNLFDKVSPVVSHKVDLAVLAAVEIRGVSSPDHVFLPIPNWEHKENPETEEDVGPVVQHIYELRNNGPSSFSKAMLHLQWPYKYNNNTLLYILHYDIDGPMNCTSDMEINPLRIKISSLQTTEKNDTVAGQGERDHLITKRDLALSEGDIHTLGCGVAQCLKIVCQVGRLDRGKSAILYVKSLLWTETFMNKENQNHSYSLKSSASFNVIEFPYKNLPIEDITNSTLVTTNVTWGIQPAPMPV
T2 sequence (P18084 24-719 limits assumed): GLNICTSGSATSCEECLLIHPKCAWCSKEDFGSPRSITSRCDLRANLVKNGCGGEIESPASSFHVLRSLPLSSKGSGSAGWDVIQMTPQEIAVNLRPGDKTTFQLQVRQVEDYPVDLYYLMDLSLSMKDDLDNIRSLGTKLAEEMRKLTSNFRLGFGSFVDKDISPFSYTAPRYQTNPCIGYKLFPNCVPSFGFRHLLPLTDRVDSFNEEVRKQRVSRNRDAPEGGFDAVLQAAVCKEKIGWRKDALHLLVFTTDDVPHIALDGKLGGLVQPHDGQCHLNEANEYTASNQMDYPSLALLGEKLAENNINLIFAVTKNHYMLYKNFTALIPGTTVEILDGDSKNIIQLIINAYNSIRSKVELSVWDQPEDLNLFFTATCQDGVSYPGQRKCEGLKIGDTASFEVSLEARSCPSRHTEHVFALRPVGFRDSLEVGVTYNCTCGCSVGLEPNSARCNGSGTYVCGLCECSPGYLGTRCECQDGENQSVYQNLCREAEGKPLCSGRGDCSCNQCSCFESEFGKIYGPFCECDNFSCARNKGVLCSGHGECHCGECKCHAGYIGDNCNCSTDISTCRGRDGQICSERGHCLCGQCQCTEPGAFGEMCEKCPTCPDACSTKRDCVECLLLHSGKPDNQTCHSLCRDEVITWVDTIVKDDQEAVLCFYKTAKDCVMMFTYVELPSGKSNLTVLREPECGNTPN
T1 sequence (P06756 31-992 limits assumed): as the sequence (P06756 31-992 limits assumed) above
T1 sequence (P05106 27-718 limits assumed): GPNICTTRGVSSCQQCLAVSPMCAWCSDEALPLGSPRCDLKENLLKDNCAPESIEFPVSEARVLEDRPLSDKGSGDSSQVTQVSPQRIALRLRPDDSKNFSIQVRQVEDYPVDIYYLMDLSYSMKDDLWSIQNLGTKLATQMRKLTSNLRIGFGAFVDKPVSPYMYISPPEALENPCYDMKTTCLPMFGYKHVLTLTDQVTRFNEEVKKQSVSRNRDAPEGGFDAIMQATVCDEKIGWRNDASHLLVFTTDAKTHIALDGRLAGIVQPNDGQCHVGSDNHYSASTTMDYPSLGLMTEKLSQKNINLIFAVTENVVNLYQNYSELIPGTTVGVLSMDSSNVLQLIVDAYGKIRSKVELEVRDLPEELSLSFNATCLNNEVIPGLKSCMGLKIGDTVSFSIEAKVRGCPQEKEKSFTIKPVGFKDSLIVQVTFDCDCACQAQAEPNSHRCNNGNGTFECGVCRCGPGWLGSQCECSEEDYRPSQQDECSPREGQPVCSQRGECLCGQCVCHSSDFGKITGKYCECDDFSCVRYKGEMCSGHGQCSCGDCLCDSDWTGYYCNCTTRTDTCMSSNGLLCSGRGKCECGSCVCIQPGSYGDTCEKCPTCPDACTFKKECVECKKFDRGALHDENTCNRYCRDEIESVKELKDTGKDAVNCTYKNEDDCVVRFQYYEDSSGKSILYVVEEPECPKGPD
T5 sequence (P06756 31-992 limits assumed): as the sequence (P06756 31-992 limits assumed) above
T5 sequence (P05556 21-728 limits assumed): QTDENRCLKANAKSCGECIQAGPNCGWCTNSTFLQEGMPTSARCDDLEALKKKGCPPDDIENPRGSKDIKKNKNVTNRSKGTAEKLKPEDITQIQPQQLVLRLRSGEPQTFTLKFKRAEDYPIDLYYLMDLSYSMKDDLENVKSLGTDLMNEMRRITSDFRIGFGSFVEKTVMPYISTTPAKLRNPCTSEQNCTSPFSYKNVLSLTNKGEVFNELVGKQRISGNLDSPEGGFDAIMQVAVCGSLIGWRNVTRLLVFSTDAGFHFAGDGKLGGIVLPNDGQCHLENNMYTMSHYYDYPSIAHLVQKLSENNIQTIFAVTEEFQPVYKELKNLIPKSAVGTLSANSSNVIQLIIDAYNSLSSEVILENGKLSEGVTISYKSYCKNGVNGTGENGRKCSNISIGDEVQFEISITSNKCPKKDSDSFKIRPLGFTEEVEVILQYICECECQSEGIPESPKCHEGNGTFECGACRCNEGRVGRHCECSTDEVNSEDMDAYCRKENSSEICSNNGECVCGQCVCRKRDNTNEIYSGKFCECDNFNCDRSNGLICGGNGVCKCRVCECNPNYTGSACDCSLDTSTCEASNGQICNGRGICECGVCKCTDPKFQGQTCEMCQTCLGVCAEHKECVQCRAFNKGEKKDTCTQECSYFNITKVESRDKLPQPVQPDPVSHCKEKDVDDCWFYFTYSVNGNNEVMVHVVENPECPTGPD
T6 sequence (P08648 42-995 limits assumed): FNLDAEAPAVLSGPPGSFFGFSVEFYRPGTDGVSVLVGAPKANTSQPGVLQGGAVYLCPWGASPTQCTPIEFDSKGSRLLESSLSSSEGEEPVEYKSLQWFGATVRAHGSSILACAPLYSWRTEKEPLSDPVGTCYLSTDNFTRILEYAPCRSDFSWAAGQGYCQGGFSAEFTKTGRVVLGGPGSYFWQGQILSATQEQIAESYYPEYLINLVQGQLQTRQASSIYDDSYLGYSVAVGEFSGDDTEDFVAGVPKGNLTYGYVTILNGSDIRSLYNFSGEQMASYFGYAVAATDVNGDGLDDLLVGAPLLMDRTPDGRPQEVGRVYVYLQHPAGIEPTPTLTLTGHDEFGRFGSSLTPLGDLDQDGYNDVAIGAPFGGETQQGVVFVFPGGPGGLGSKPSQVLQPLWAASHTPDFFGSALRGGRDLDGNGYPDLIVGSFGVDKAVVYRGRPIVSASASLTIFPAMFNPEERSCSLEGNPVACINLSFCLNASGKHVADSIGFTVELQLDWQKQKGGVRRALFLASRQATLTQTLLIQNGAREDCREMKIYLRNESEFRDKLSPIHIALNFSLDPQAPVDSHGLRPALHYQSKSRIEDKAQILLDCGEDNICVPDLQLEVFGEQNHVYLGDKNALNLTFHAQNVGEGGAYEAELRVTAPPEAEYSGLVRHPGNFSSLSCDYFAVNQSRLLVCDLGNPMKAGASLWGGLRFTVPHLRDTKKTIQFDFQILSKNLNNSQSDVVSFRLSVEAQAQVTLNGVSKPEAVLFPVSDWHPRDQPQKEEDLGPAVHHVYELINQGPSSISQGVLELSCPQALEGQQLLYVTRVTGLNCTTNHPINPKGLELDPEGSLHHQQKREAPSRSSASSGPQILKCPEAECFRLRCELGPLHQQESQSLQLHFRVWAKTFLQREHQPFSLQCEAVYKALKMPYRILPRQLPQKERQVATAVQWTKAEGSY
T6 sequence (P05556 21-728 limits assumed): as the sequence (P05556 21-728 limits assumed) above

`COc1ccc([C@H](CC(=O)O)N2CCN(CCCc3ccc4c(n3)NCCC4)C2=O)cn1` [MK-0429, (3S)-3-(6-methoxypyridin-3-yl)-3-[2-oxo-3-[3-(5,6,7,8-tetrahydro-1,8-naphthyridin-2-yl)propyl]imidazolidin-1-yl]propanoic acid] showed an IC50 (hαvβ3; FIG. 3D, curve-fitted, read-out: IC50 against human αvβ3, AlphaLISA) of 0.15 nM, an IC50 (hαvβ3; Table 11, read-out: IC50 Human integrin AlphaLISA assays hαvβ3) of 1.6 nM and an IC50 (hαvβ5; FIG. 3D, curve-fitted, read-out: IC50 against human αvβ5, AlphaLISA) of 9.9 nM. For the same compound, the IC50 (hαvβ5; Table 11, read-out: IC50 Human integrin AlphaLISA assays hαvβ5) was 2.9 nM, the IC50 (mαvβ3) was 0.9 nM and the IC50 (mαvβ5) was 48.3 nM. The proteinuria [1] was “reduces”, the renal fibrosis [1] was “reduces” and the IC50 (hαvβ1; FIG. 3D, curve-fitted, read-out: IC50 against human αvβ1, AlphaLISA) was 0.46 nM. The IC50 (hαvβ1; Table 11, read-out: IC50 Human integrin AlphaLISA assays hαvβ1) was 1 nM, the IC50 (hα5β1; FIG. 3D, curve-fitted, read-out: IC50 against human αvβ1 (as printed, sixth integrin listed), AlphaLISA) was 17.3 nM and the IC50 (hα5β1; Table 11, read-out: IC50 Human integrin AlphaLISA assays hα5β1) was 26.5 nM. The “cell adhesion of mouse αvβ3 on a vitronectin matrix” value (mouse αvβ3) was “decreased”, the “adhesion of mouse αvβ1-expressing CHOK1-α5KO cells” value (mouse αvβ1) was “potently reduced” and the IC50 (mαvβ8) was 5.3 nM. The IC50 (mαvβ6) was 0.4 nM, the oral bioavailability [2] was “good oral bioavailability” and the “cell adhesion of mouse αvβ5 on a vitronectin matrix” value (mouse αvβ5) was “decreased”.
